Several values for one entry are separate records, joined by “and”; a condition that tells them apart may be missing. Identical values can stand only once.
Conditions: Liquid; for self diffusion coefficient: NMR spin-echo technique; for viscosity: Falling or rolling sphere viscometry; for mass density: Vibrating tube method

OCC(F)(F)F [2,2,2-trifluoroethanol]
Conditions	mass density	self diffusion coefficient [m2/s]	viscosity
253.24 K, 100 kPa	–	1.33e-10	–
258.45 K, 100 kPa	–	1.68e-10	–
258.49 K, 100 kPa	–	1.68e-10	–
263.15 K, 100 kPa	–	–	5.502 mPa·s and 5.485 mPa·s
263.15 K, 9900 kPa	–	–	6.125 mPa·s
263.15 K, 10000 kPa	–	–	6.134 mPa·s
263.15 K, 24500 kPa	–	–	7.159 mPa·s
263.15 K, 24600 kPa	–	–	7.168 mPa·s
263.15 K, 50500 kPa	–	–	9.212 mPa·s
263.15 K, 50600 kPa	–	–	9.203 mPa·s
263.15 K, 75500 kPa	–	–	11.52 mPa·s and 11.51 mPa·s
263.15 K, 100200 kPa	–	–	14.28 mPa·s
263.15 K, 101000 kPa	–	–	14.38 mPa·s
263.15 K, 131600 kPa	–	–	18.4 mPa·s
263.15 K, 132200 kPa	–	–	18.53 mPa·s
263.37 K, 100 kPa	–	2.05e-10	–
263.39 K, 100 kPa	–	2.06e-10	–
268.15 K, 100 kPa	–	–	4.517 mPa·s and 4.513 mPa·s
272.82 K, 79000 kPa	–	1.66e-10	–
272.84 K, 25700 kPa	–	2.48e-10	–
272.86 K, 100 kPa	–	3.06e-10	–
272.87 K, 100 kPa	–	3.06e-10	–
272.9 K, 200500 kPa	–	7.6e-11	–
272.91 K, 299000 kPa	–	4.23e-11	–
272.93 K, 249000 kPa	–	5.7e-11	–
272.99 K, 150000 kPa	–	1.04e-10	–
273.09 K, 98000 kPa	–	1.46e-10	–
273.15 K, 100 kPa	1424.26 kg/m3	–	3.798 mPa·s [middle of 5 runs]
273.15 K, 10400 kPa	–	–	4.226 mPa·s
273.15 K, 10500 kPa	–	–	4.224 mPa·s
273.15 K, 25500 kPa	–	–	4.909 mPa·s and 4.905 mPa·s
273.15 K, 50500 kPa	–	–	6.179 mPa·s and 6.166 mPa·s
273.15 K, 75000 kPa	–	–	7.57 mPa·s
273.15 K, 75500 kPa	–	–	7.582 mPa·s
273.15 K, 99800 kPa	–	–	9.373 mPa·s
273.15 K, 100300 kPa	–	–	9.375 mPa·s
273.15 K, 125600 kPa	–	–	11.37 mPa·s and 11.45 mPa·s
273.15 K, 125700 kPa	–	–	11.39 mPa·s
273.15 K, 150300 kPa	–	–	13.73 mPa·s
273.15 K, 150700 kPa	–	–	13.79 mPa·s
273.15 K, 176200 kPa	–	–	16.53 mPa·s
273.15 K, 176400 kPa	–	–	16.61 mPa·s
273.15 K, 201100 kPa	–	–	19.6 mPa·s and 19.51 mPa·s
273.15 K, 233500 kPa	–	–	24.25 mPa·s
273.15 K, 233700 kPa	–	–	24.29 mPa·s
273.25 K, 100 kPa	–	3.07e-10	–
273.25 K, 50000 kPa	–	2.04e-10	–
273.8 K, 100 kPa	–	3.3e-10	–
278.15 K, 100 kPa	1416.08 kg/m3	–	3.311 mPa·s and 3.305 mPa·s
278.59 K, 100 kPa	–	3.94e-10	–
278.63 K, 100 kPa	–	3.87e-10	–
283.15 K, 100 kPa	1407.84 kg/m3 and 1407.85 kg/m3	–	2.746 mPa·s and 2.749 mPa·s
288.15 K, 100 kPa	1399.56 kg/m3	–	2.363 mPa·s and 2.368 mPa·s
288.53 K, 100 kPa	–	5.41e-10	–
288.56 K, 100 kPa	–	5.3e-10	–
293.15 K, 100 kPa	1391.18 kg/m3 and 1391.19 kg/m3	–	2.077 mPa·s [middle of 4 runs]
298.15 K, 100 kPa	1382.73 kg/m3 and 1382.71 kg/m3	–	1.781 mPa·s [middle of 7 runs]
298.15 K, 10200 kPa	–	–	1.98 mPa·s and 1.981 mPa·s
298.15 K, 25400 kPa	–	–	2.267 mPa·s and 2.264 mPa·s
298.15 K, 49900 kPa	–	–	2.755 mPa·s
298.15 K, 50200 kPa	–	–	2.773 mPa·s
298.15 K, 74900 kPa	–	–	3.317 mPa·s
298.15 K, 75100 kPa	–	–	3.314 mPa·s
298.15 K, 100400 kPa	–	–	3.929 mPa·s
298.15 K, 100600 kPa	–	–	3.938 mPa·s
298.15 K, 125200 kPa	–	–	4.612 mPa·s
298.15 K, 125400 kPa	–	–	4.61 mPa·s
298.15 K, 150100 kPa	–	–	5.347 mPa·s
298.15 K, 175000 kPa	–	–	6.198 mPa·s
298.15 K, 175200 kPa	–	–	6.197 mPa·s
298.15 K, 197500 kPa	–	–	6.965 mPa·s
298.15 K, 197800 kPa	–	–	6.993 mPa·s
298.15 K, 200700 kPa	–	–	7.21 mPa·s
298.15 K, 201700 kPa	–	–	7.297 mPa·s
298.15 K, 224400 kPa	–	–	8.254 mPa·s
298.15 K, 226100 kPa	–	–	8.33 mPa·s
298.15 K, 256900 kPa	–	–	9.931 mPa·s
298.15 K, 258400 kPa	–	–	10.03 mPa·s
298.15 K, 276700 kPa	–	–	10.98 mPa·s
298.15 K, 277800 kPa	–	–	11.04 mPa·s
298.15 K, 300600 kPa	–	–	12.3 mPa·s
298.15 K, 301600 kPa	–	–	12.43 mPa·s
298.15 K, 325400 kPa	–	–	13.99 mPa·s
298.15 K, 326500 kPa	–	–	14.06 mPa·s
298.15 K, 348800 kPa	–	–	15.77 mPa·s
298.15 K, 351100 kPa	–	–	15.95 mPa·s
298.26 K, 100 kPa	–	6.91e-10	–
298.32 K, 100 kPa	–	6.96e-10	–
298.34 K, 100 kPa	–	7.21e-10	–
298.35 K, 100 kPa	–	7.06e-10	–
298.36 K, 100 kPa	–	6.95e-10	–
298.55 K, 100 kPa	–	6.99e-10	–
299.89 K, 25000 kPa	–	6.08e-10	–
299.91 K, 50000 kPa	–	5.11e-10	–
299.91 K, 72500 kPa	–	4.38e-10	–
299.92 K, 100 kPa	–	7.35e-10	–
299.92 K, 300000 kPa	–	1.32e-10	–
299.93 K, 98000 kPa	–	3.77e-10	–
299.93 K, 199000 kPa	–	2.14e-10	–
299.94 K, 149000 kPa	–	2.87e-10	–
299.94 K, 350000 kPa	–	1.09e-10	–
299.98 K, 250000 kPa	–	1.72e-10	–
300.4 K, 100 kPa	–	7.52e-10	–
303.15 K, 100 kPa	–	–	1.574 mPa·s and 1.565 mPa·s

— the NIST ThermoML archive (doi:10.1021/acs.jced.7b01030)
